In patent publication US7511074B2, “Tetrafluorobenzyl derivatives and pharmaceutical composition for preventing and treating acute and chronic neurodegenerative diseases in central nervous system containing the same” (AmKor Pharma, Inc., priority 2002, dated 2009):

Columns and labels:
[1] = test system: Mouse cortical cell cultures; assay: Zinc neurotoxicity in mixed cortical cell cultures (LDH assay); type: cell-based; settings: 100 μM ZnCl2 for 30 min, concurrent treatment; LDH 24 hr later
Protocol: Mouse cortical cell cultures (DIV 12-14) were exposed to […] for 30 min, alone or with inclusion of 3-300 μM 2-Hydroxy-TTBA. Neuronal death was analyzed 24 hr later by measuring levels of LDH released into the bathing medium, mean ±SEM (n=9-12 culture wells per condition), scaled to mean LDH efflux value 24 hr after sham wash (=0) and continuous exposure to 500 μM NMDA (=100).
For mixed neuron-glia culture, mouse cerebral cortices were removed from brains of the 14-16 day-old-fetal mice (E14-16), gently triturated and plated on 24 well plates (2×10^5 cells/plate) precoated with 100 μg/ml poly-D-lysine and 4 μg/ml laminine. Cultures were maintained at 37° C. in a humidified 5% CO2 atmosphere. […]
After 7-8 days in vitro (DIV 7-8), 10 μM cytosine arabinofuranoside (Ara-C) was included to halt overgrowth of glia. […] Overall neuronal cell injury was assessed by measuring amount of lactate dehydrogenase (LDH) released into the bathing medium 24 hr after neurotoxic insults as previously described [Koh and Choi, J Neurosci Methods 20:83-90, 1987].
To induce zinc (Zn^2+) neurotoxicity, mixed cortical cell cultures were exposed to 100 μM ZnCl2 for 30 min in a HEPES-buffered control salt solution (HCSS): (in mM) 120 NaCl, 5 KCl, 1.6 MgCl2, 2.3 CaCl2, 15 glucose, 20 HEPES and 10 NaOH, alone or with 3-300 uM 2-Hydroxy-TTBA. […] Neuronal cell death was analyzed 24 hr later by LDH assay. […]

[2] = test system: Mouse cortical cell cultures; assay: NMDA-induced excitotoxicity in mixed cortical cell cultures (LDH release); type: cell-based; settings: 300 μM NMDA for 10 min, co-treatment; LDH release 24 hr later
Protocol: Mouse cortical cell cultures (DIV 12-14) were exposed to 300 μM NMDA for 10 min, alone or with inclusion of 3-300 μM 2-Hydroxy-TTBA. Neuronal death was analyzed 24 hr later by measuring levels of LDH released into the bathing medium, mean ±SEM (n=9-12 culture wells per condition), scaled to mean LDH efflux value 24 hr after sham wash (=0) and continuous exposure to 500 μM NMDA (=100) that causes near complete neuronal death. *, Significant difference from the vehicle control, p<0.05 using ANOVA and Student-Neuman-Keuls' test.
Mouse cortical cell cultures (DIV 12-14) were exposed to 300 μM NMDA for 10 min, alone (□) or with inclusion of 3-300 μM 2-Hydroxy-TTS (●), 2-Hydroxy-TTA (◯), 2-Ethan-TTBA (▾), 2-Propan-TTBA (∇), or 2-Cyclohexan-TTBA (▪). Neuronal death was analyzed 24 hr later by measuring levels of LDH released into the bathing medium, mean ±SEM (n=9-12 culture wells per condition), scaled to mean LDH efflux value 24 hr after sham wash (=0) and continuous exposure to 500 μM NMDA (=100). *, Significant difference from the vehicle control, p<0.05 using ANOVA and Student-Neuman-Keuls' test.
For mixed neuron-glia culture, mouse cerebral cortices were removed from brains of the 14-16 day-old-fetal mice (E14-16), gently triturated and plated on 24 well plates (2×10^5 cells/plate) precoated with 100 μg/ml poly-D-lysine and 4 μg/ml laminine. […]

Compound: O=C(O)c1cc(NCc2c(F)c(F)c(C(F)(F)F)c(F)c2F)ccc1O [2-Hydroxy-TTBA, 2-hydroxy-5-(2,3,5,6-tetrafluoro-4-trifluoromethylbenzylamino)benzoic acid]
- doses at which zinc-induced neuronal death was prevented [1]: 10 to 300 µM
- doses at which NMDA-induced neuronal death was blocked/prevented [2]: 10 to 300 µM
